Results: ChEMBL document CHEMBL1130548, “Synthesis and structure-activity relationships for a series of substituted pyrrolidine NK1/NK2 receptor antagonists” (Bioorg Med Chem Lett, 1997)

How the values were obtained:
[1] = target: Substance-P receptor (Cavia porcellus, UniProt P30547); assay: Binding affinity for NK1 receptor in guinea pig lung was determined by using [125 I]-Bolton Hunter labeled SP
[2] = Partition coefficient (logP); type: physicochemical; conditions: octanol/water
[3] = The solubility in a […] phosphate buffer solution at pH 7.4; type: ADME
[4] = The pKa1 value for the compound was determined by titrating in an aqueous solution (ISA).; type: physicochemical; conditions: read-out: pKa1
[5] = The relative permeability was measured from transport studies using polycarbonate membranes and Dulbecco's modified eagle medium with 10% fetal bovine serum.; type: ADME
[6] = species: Rattus norvegicus; assay: The relative metabolic stability at 10 uM concentration was determined using rat liver […] fortified with NADPH.; type: functional
[7] = The pKa2 value for the compound was determined by titrating in an aqueous solution (ISA).; type: physicochemical; conditions: read-out: pKa2
[8] = Partition coefficient (logD); type: physicochemical; conditions: octanol/water
[9] = tested on: Cavia porcellus; assay: The perorally administered compound was evaluated for percentage inhibition of capsaicin induced respiratory effects at 10 mg / kg concentration in guinea pig; conditions: po
[10] = The pKa3 value for the compound was determined by titrating in an aqueous solution (ISA).; type: physicochemical; conditions: read-out: pKa3

Substance-P receptor, sequence (P30547 whole entry): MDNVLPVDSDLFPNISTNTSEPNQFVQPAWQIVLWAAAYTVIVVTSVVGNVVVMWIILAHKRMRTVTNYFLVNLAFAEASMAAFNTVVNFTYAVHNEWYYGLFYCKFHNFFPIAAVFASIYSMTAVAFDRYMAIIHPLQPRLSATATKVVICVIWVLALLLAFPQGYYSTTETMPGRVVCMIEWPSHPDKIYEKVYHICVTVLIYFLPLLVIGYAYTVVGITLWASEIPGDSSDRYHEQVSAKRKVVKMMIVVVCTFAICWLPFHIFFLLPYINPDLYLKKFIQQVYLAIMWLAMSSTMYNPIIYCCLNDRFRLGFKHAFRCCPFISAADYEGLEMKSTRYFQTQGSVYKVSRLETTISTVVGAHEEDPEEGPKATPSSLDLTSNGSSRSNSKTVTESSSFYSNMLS

For COc1cc(C(=O)N2CCC(CCN3CCC(C(=O)N4CCCCC4)(c4ccccc4)CC3)(c3ccc(Cl)c(Cl)c3)C2)cc(OC)c1OC (configuration not stated), the IC50 [1] was 23.2 nM.
Work on COc1cc(C(=O)N2CCC(CCN3CCC(C(=O)N4CCN(C)CC4)(c4ccccc4)CC3)(c3ccc(Cl)c(Cl)c3)C2)cc(OC)c1OC (configuration not stated) yielded an IC50 [1] of 4.51 nM.
For COc1cc(C(=O)N2CCC(CCN3CCC(C(N)=O)(c4ccccc4)CC3)(c3ccc(F)c(F)c3)C2)cc(OC)c1OC (configuration not stated), the IC50 [1] was 9.76 nM.
In the case of COc1cc(C(=O)N2CCC(CCN3CCC(C(=O)NCCN4CCOCC4)(c4ccccc4)CC3)(c3ccc(Cl)c(Cl)c3)C2)cc(OC)c1OC (configuration not stated), the IC50 [1] is reported as 7.53 nM.
COc1cc(C(=O)N2CCC(CCN3CCC(C(N)=O)(c4ccncc4)CC3)(c3ccc(Cl)c(Cl)c3)C2)cc(OC)c1OC (configuration not stated) showed an IC50 [1] of 4.88 nM.
Work on COc1cc(C(=O)N2CCC(CCN3CCC(C(N)=O)(c4ccccc4)CC3)(c3cccnc3)C2)cc(OC)c1OC (configuration not stated) yielded an IC50 [1] of 567 nM.
With COc1cc(C(=O)N2CCC(CCN3CCC(C(N)=O)(c4ccccc4)CC3)(c3ccc(Cl)cc3)C2)cc(OC)c1OC (configuration not stated) the IC50 [1] was 8.62 nM.
COc1cc(C(=O)N2CC[C@](CCN3CCC(C(=O)N4CCN(C)CC4)(c4ccccc4)CC3)(c3ccc(Cl)c(Cl)c3)C2)cc(OC)c1OC.Cl gave a logP ([2]; read-out: logP) of 4.7, a solubility [3] of 426 µg/mL and a pKa [4] of 7.92. The Relative permiability [5] was 2.1, the IC50 [1] was 3.94 nM and the Relative metabolic stability [6] was 0.43. For the same compound, the pKa [7] was 6.86, the logD ([8]; read-out: logD) was 3.71 and the inhibition in vivo at 10 mg/kg [9] was 31%.
With COc1cccc(C2(C(N)=O)CCN(CCC3(c4ccc(Cl)c(Cl)c4)CCN(C(=O)c4cc(OC)c(OC)c(OC)c4)C3)CC2)c1 (configuration not stated) the IC50 [1] was 8.49 nM.
With COc1cc(C(=O)N2CCC(CCN3CCC(C(N)=O)(c4cccnc4)CC3)(c3ccc(Cl)c(Cl)c3)C2)cc(OC)c1OC (configuration not stated) the IC50 [1] was 8.14 nM.
Compound COc1cc(C(=O)N2CC[C@](CCN3CCC(C(N)=O)(c4cccnc4)CC3)(c3ccc(Cl)c(Cl)c3)C2)cc(OC)c1OC.Cl has a logP [2] of 1.9, a solubility [3] of 548 µg/mL and a pKa [4] of 7.6. It also gave a Relative permiability [5] of 0.1, an IC50 [1] of 4.01 nM and a Relative metabolic stability [6] of 0.72. It also gave a pKa [7] of 3.97, a logD [8] of 2.59 and an inhibition in vivo at 10 mg/kg [9] of 38%.
Work on COc1cc(C(=O)N2CCC(CCN3CCC(C(N)=O)(c4ccccc4)CC3)(c3ccc(F)cc3)C2)cc(OC)c1OC (configuration not stated) yielded an IC50 [1] of 23.3 nM.
Work on COc1ccc(C2(CCN3CCC(C(N)=O)(c4ccccc4)CC3)CCN(C(=O)c3cc(OC)c(OC)c(OC)c3)C2)cc1OC (configuration not stated) yielded an IC50 [1] of 36.7 nM.
Compound COc1cc(C(=O)N2CC[C@](CCN3CCC(C(N)=O)(c4ccccc4)CC3)(c3ccc(Cl)c(Cl)c3)C2)cc(OC)c1OC.Cl has a logP [2] of 3.4, a solubility [3] of 70 µg/mL and a pKa [4] of 7.64. For the same compound, the Relative permiability [5] was 1, the IC50 [1] was 3.11 nM and the Relative metabolic stability [6] was 1. The logD ([8]; read-out: logD) was 3.02 and the inhibition in vivo at 10 mg/kg [9] was 60%.
In the case of COc1cc(C(=O)N2CCC(CCN3CCC(C(N)=O)(c4ccccc4)CC3)(c3cccc(Cl)c3)C2)cc(OC)c1OC (configuration not stated), the IC50 [1] is reported as 10.7 nM.
For COc1cc(C(=O)N2CCC(CCN3CCC(C(=O)N4CCOCC4)(c4ccccc4)CC3)(c3ccc(Cl)c(Cl)c3)C2)cc(OC)c1OC (configuration not stated), the IC50 [1] was 8.72 nM.
With COc1cc(C(=O)N2CC[C@](CCN3CCC(C(=O)N4CCN(C)CC4)(c4cccnc4)CC3)(c3ccc(Cl)c(Cl)c3)C2)cc(OC)c1OC.Cl the logP ([2]; read-out: logP) was 3.2, the solubility [3] was 1200 µg/mL and the pKa [4] was 11.4. It also gave a Relative permiability [5] of 1.2, a pKa [10] of 6.71 and an IC50 [1] of 2.46 nM. For the same compound, the pKa [7] was 7.76, the logD ([8]; read-out: logD) was 2.41 and the inhibition in vivo at 10 mg/kg [9] was 13%.
In the case of COc1cc(C(=O)N2CC[C@](CCN3CCC(C(=O)N4CCOCC4)(c4ccccc4)CC3)(c3ccc(Cl)c(Cl)c3)C2)cc(OC)c1OC.Cl, the logP ([2]; read-out: logP) is reported as 4.3, the solubility [3] is reported as 25 µg/mL and the pKa [4] is reported as 7.51. It also gave a Relative permiability [5] of 3.7, an IC50 [1] of 4.34 nM and a Relative metabolic stability [6] of 0.77. The logD ([8]; read-out: logD) was 3.02 and the inhibition in vivo at 10 mg/kg [9] was 39%.
For COc1cc(C(=O)N2CCC(CCN3CCC(C(N)=O)(c4ccccc4)CC3)(c3ccc(Cl)c(Cl)c3)C2)cc(OC)c1OC (configuration not stated), the IC50 [1] was 5.88 nM.
Work on COc1cc(C(=O)N2CC[C@](CCN3CCC(C(N)=O)(c4ccncc4)CC3)(c3ccc(Cl)c(Cl)c3)C2)cc(OC)c1OC.Cl yielded a logP [2] of 1.9, a solubility [3] of 408 µg/mL and a pKa [4] of 7.53. The Relative permiability [5] was 0.1, the IC50 [1] was 2.49 nM and the Relative metabolic stability [6] was 0.78. For the same compound, the pKa [7] was 4.14, the logD [8] was 2.64 and the inhibition in vivo at 10 mg/kg [9] was 20%.
COc1cc(C(=O)N2CCC(CCN3CCC(C(N)=O)(c4ccc(F)cc4)CC3)(c3ccc(Cl)c(Cl)c3)C2)cc(OC)c1OC (configuration not stated) gave an IC50 [1] of 13.5 nM.
